Assay results taken from patent US11504371B2, “Quinazolines compound, preparation method therefor and application thereof” (Beijing Normal University, priority 2017, dated 2022).
“Also recorded” adds a separate entry of the source. Where two headings read alike, the source gives them in different places.

What was measured:
[1] = system: human hepatoma cell line (HepG2); test: MTT assay, tumor cell proliferation inhibition, HepG2; type: cell-based; conditions: 72 h, read-out: Tumor inhibition rate (IC50)
Description: (§1) Cell lines to be tested: human hepatoma cell line (HepG2), human lung cancer cell line (A549), human prostate cancer cell line (DU145), human breast cancer cell line (MCF-7), human neuroblastoma cell line (SH-SY5Y), human gastric mucosal cell line (Ges-1) and human embryonic lung fibroblast cell line (CCC-HPF-1) (the cells to be tested were purchased from the Cancer Hospital of Chinese Academy of Medical Sciences).
(§2) The cells in logarithmic growth phase were treated to prepare a single cell suspension, with the cell density adjusted, which was seeded in a 96-well cell culture plate. About 2×10^3 cells were contained in 100 μL per well, and cultured in a cell incubator at 37° C., 5% CO2, and saturated humidity for 24 h. The used medium was aspirated and abandoned, and then 100 μL of the target compound in different concentrations (0.1 μM-100 μM) were added for drug treatment. Five duplicate wells were prepared for each concentration. The background blank well, negative control well and positive control well were also prepared. All the wells were placed in a cell culture incubator at 37° C., 5% CO2, saturated humidity for another 72 h. Then, each well was added with 10 μL of MTT solution (5 mg/mL) and incubated for another 4 h. After that, each well was added with 100 μL of 10% SDS-0.1% NH4Cl (10% SDS purchased from Beijing Mengyimei Biotechnology Co., Ltd.) solution, and incubated at 37° C. for 10 h in the dark. Then, the absorbance OD was measured at 570 nm using a microplate reader at a reference wavelength of 650 nm. Cell proliferation inhibition was calculated according to the following formula: % inhibition=(ODcontrol−ODtreat)(ODcontrol−ODblank)×100. […] Each group was performed at least three times in parallel.

[2] = system: human neuroblastoma cell line (SH-SY5Y); test: MTT assay, tumor cell proliferation inhibition, SH-SY5Y; type: cell-based; conditions: SH-SY5Y, 72 h, read-out: Tumor inhibition rate (IC50)
Description: as §1, §2

[3] = system: human lung cancer cell line (A549); test: MTT assay, tumor cell proliferation inhibition, A549; type: cell-based; conditions: A549, MTT, 72 h, read-out: Tumor inhibition rate (IC50)
Description: as §1, §2

[4] = system: human breast cancer cell line (MCF-7); test: MTT assay, tumor cell proliferation inhibition, MCF-7; type: cell-based; conditions: MCF-7, MTT, 72 h, read-out: Tumor inhibition rate (IC50)
Description: as §1, §2

[5] = system: human prostate cancer cell line (DU145); test: MTT assay, tumor cell proliferation inhibition, DU145; type: cell-based; conditions: for IC50: DU145, MTT, 72 h, read-out: Tumor inhibition rate (IC50)
Description: as §1, §2

HepG2 cancer cells = test: Nude mice bearing HepG2 cancer cells; conditions: for weight loss of nude mice (FIG. 6): 40 mg/Kg, single agent; for tumor growth (tumor volume, FIG. 5): nude mice bearing HepG2, single agent
Description: Firstly, a tumor-bearing nude mouse model was established. […] Then, grouping and administration were performed; the nude mice (5 mice in each group) were randomly divided into several groups, such as ultra-pure water control group (blank), positive drug control group, and different dosage treatment groups. The nude mice in each group were administered continuously for 40 days. The nude mice were weighted every other day during the administration. Tumor volumes were measured and calculated.

A549 cancer cells = test: Nude mice bearing A549 cancer cells; type: in vivo; conditions: mouse, in vivo
Description: (§3) In the present invention, the antitumor activity was evaluated by intraperitoneal injection to nude mice bearing different tumors, for compounds 3 (N-(4-((4-nitrophenyl)methoxy)phenyl)-6,7-(benzo-9-crown-3)-4-quinazolinamine) and 23 (compounds No. are shown in Table 1) (N-(3-((4-trifluoromethylphenyl)methoxy)phenyl)-6,7-(benzo-12-crown-4)-4-quinazolinamine) of formula (I).
(§4) Firstly, a tumor-bearing nude mouse model was established. 0.2-1 mL of cell suspension was inoculated subcutaneously into the left lower limb of nude mice, and the drug was administered when the tumor volume reached about 100 mm^3. Then, grouping and administration were performed; the nude mice (5 mice in each group) were randomly divided into several groups, such as ultra-pure water control group (blank), positive drug control group, and different dosage treatment groups. The nude mice in each group were administered continuously for 40 days. The nude mice were weighted every other day during the administration. Tumor volumes were measured and calculated. Then tumor growth curve, tumor inhibition curve (see FIGS. 1 and 3) and weight change curve (see FIGS. 2 and 4) were drawn. […]. Among those, docetaxel suffers from high cumulative neurotoxic toxicity and drug resistance although it has the best effect. Comparing to docetaxel, compound 23 has a much lower toxicity and drug resistance, and thus has a great development prospect. […]

DU145 cancer cells = test: Nude mice bearing DU145 cancer cells; type: in vivo; conditions: for tumor growth: FIG. 3
Description: as §3
as §4, with “The nude mice in each group were administered continuously for 40 days.” left out

[6] = system: tumor cell strains HepG2, A549, MCF-7, DU145 and SH-SY5Y; test: MTT assay, summary over the five tumor cell lines; type: cell-based, human; conditions: HepG2, A549, MCF-7, DU145, SH-SY5Y
Description: as §1
The cells in logarithmic growth phase were treated to prepare a single cell suspension, with the cell density adjusted, which was seeded in a 96-well cell culture plate. About 2×10^3 cells were contained in 100 μL per well, and cultured in a cell incubator at 37° C., 5% CO2, and saturated humidity for 24 h. The used medium was aspirated and abandoned, and then 100 μL of the target compound in different concentrations (0.1 μM-100 μM) were added for drug treatment. Five duplicate wells were prepared for each concentration. The background blank well, negative control well and positive control well were also prepared. All the wells were placed in a cell culture incubator at 37° C., 5% CO2, saturated humidity for another 72 h. Then, each well was added with 10 μL of MTT solution (5 mg/mL) and incubated for another 4 h. After that, each well was added with 100 μL of 10% SDS-0.1% NH4Cl (10% SDS purchased from Beijing Mengyimei Biotechnology Co., Ltd.) solution, and incubated at 37° C. for 10 h in the dark. Then, the absorbance OD was measured at 570 nm using a microplate reader at a reference wavelength of 650 nm. Cell proliferation inhibition was calculated according to the following formula: % inhibition=(ODcontrol−ODtreat)(ODcontrol−ODblank)×100. IC50 value, i.e., 50% proliferation inhibition concentration, was calculated by SPSS 16.0 software. Each group was performed at least three times in parallel.
The inhibitory activities of 35 target compounds against tumor cell strains HepG2, A549, MCF-7, DU145 and SH-SY5Y were tested by MTT assay (Table 1). Some compounds with optimal antitumor activity were selected.

| Structure (SMILES) | IC50 [1] [µM] | IC50 [2] [µM] | IC50 [3] [µM] | IC50 [4] [µM] | IC50 [5] [µM] | also measured |
| --- | --- | --- | --- | --- | --- | --- |
| N#Cc1cc(Nc2ncnc3cc4c(cc23)OCCOCCO4)ccc1OCc1cccc(F)c1 [Compound 36, 2-(3-Fluoro-benzyloxy)-5-(7,8,10,11-tetrahydro-6,9,12-trioxa-1,3-diaza-cyclonona[b]naphthalen-4-ylamino)-benzonitrile] |  |  |  |  |  | IC50 ([1]; Homo sapiens): > 100 µM; IC50 ([2]; Homo sapiens): > 100 µM; IC50 ([3]; Homo sapiens): 3.52 µM; IC50 ([4]; Homo sapiens, MCF7): > 100 µM; IC50 ([5]; Homo sapiens, DU-145): 0.31 µM; melting point: 220 to 222 °C |
| CNC(=O)c1cc(Oc2ccc(NC(=O)Nc3ccc(Cl)c(C(F)(F)F)c3)cc2)ccn1 [sorafenib] |  |  |  |  |  | weight loss of nude mice (FIG. 6) (HepG2 cancer cells): weight loss of nude mice is relatively slow; tumor growth (tumor volume, FIG. 5) (HepG2 cancer cells): can slow down the tumor growth with increasing drug dose |
| COc1cc2ncnc(Nc3ccc(F)c(Cl)c3)c2cc1OCCCN1CCOCC1 [Gefitinib, reference compound] |  |  |  |  |  | toxicity / body weight of nude mice (FIG. 2) (A549 cancer cells): increased |
| CNC(=O)c1cc(Oc2ccc(NC(=O)Nc3ccc(Cl)c(C(F)(F)F)c3)c(F)c2)ccn1 [regorafenib] |  |  |  |  |  | weight loss of nude mice (FIG. 6) (HepG2 cancer cells): weight loss of nude mice is similar; tumor growth (tumor volume, FIG. 5) (HepG2 cancer cells): can slow down the tumor growth with increasing drug dose |
| FC(F)(F)c1ccc(COc2ccc(Nc3ncnc4cc5c(cc34)OCCOCCO5)cc2)cc1 [Compound 9, N-(4-((4-trifluoromethylphenyl)methoxy)phenyl)-6,7-(benzo-9-crown-3)-4-quinazolinamine] | > 100 | 30.4 | > 100 | > 100 | > 100 |  |
| FC(F)(F)c1ccc(COc2cccc(Nc3ncnc4cc5c(cc34)OCCOCCOCCO5)c2)cc1 [Compound 23, N-(3-((4-trifluoromethylphenyl)methoxy)phenyl)-6,7-(benzo-12-crown-4)-4-quinazolinamine] |  |  |  |  |  | IC50 ([1]; Homo sapiens): 34 µM; IC50 ([2]; Homo sapiens): 20 µM; IC50 ([3]; Homo sapiens): 24.9 µM; IC50 ([4]; Homo sapiens, MCF7): 17.6 µM; IC50 ([5]; Homo sapiens, DU-145): 2.76 µM; inhibitory effect on DU145 (in words) ([5]; MTT, summary of Table 1): strong specific inhibitory effect; tumor growth (DU145 cancer cells; 80 mg/Kg): no longer grown almost; body weight compared with blank control (DU145 cancer cells; 80 mg/Kg, after treating for 50 days): even heavier than that of the blank control group; tumor growth (DU145 cancer cells; 160 mg/Kg): no longer grown almost; also recorded: completely inhibited; toxicity (DU145 cancer cells; 160 mg/kg, FIG. 4): no significant toxicity was observed; toxicity / body weight of nude mice (FIG. 4) (DU145 cancer cells; nude mice bearing DU145): very low; antitumor effect (tumor volume, FIG. 3) (DU145 cancer cells; nude mice bearing DU145, intraperitoneal injection, three doses): significant antitumor effect; also recorded: high inhibitory effect |
| Fc1ccc(COc2cccc(Nc3ncnc4cc5c(cc34)OCCOCCO5)c2)cc1Cl [Compound 14, N-(3-((3-chloro,4-fluorophenyl)methoxy)phenyl)-6,7-(benzo-9-crown-3)-4-quinazolinamine] | 43.6 | 22.7 | > 100 | > 100 | 90.1 |  |
| FC(F)(F)c1ccc(COc2ccccc2Nc2ncnc3cc4c(cc23)OCCOCCO4)cc1 [Compound 7, N-(2-((4-trifluoromethylphenyl)methoxy)phenyl)-6,7-(benzo-9-crown-3)-4-quinazolinamine] | 87.4 | > 100 | > 100 | > 100 | > 100 |  |
| N#Cc1ccc(COc2cccc(Nc3ncnc4cc5c(cc34)OCCOCCOCCO5)c2)cc1 [Compound 10, N-(3-((4-cyanophenyl)methoxy)phenyl)-6,7-(benzo-12-crown-4)-4-quinazolinamine] | > 100 | > 100 | > 100 | > 100 | > 100 |  |
| FC(F)(F)c1ccc(COc2cccc(Nc3ncnc4cc5c(cc34)OCCOCCOCCOCCO5)c2)cc1 [Compound 34, N-(3-((4-trifluoromethylphenyl)methoxy)phenyl)-6,7-(benzo-15-crown-5)-4-quinazolinamine] | 5.7 | 8.56 | 8.52 | 8.48 | 26.9 | inhibitory effect on proliferation of the five tumor cells (in words) [6]: good inhibitory effect on proliferation of at least three of the five tumor cells |
| O=[N+]([O-])c1ccc(COc2cccc(Nc3ncnc4cc5c(cc34)OCCOCCOCCO5)c2)cc1 [Compound 19, N-(3-((4-nitrophenyl)methoxy)phenyl)-6,7-(benzo-12-crown-4)-4-quinazolinamine] | > 100 | > 100 | > 100 | > 100 | > 100 |  |
| c1ccc(COc2ccccc2Nc2ncnc3cc4c(cc23)OCCOCCOCCOCCO4)cc1 [Compound 27, N-(2-((phenyl)methoxy)phenyl)-6,7-(benzo-15-crown-5)-4-quinazolinamine] | 29.2 | 24 | 48.5 | > 100 | > 100 |  |
| FC(F)(F)c1ccc(COc2ccc(Nc3ncnc4cc5c(cc34)OCCOCCOCCO5)cc2)cc1 [Compound 24, N-(4-((4-trifluoromethylphenyl)methoxy)phenyl)-6,7-(benzo-12-crown-4)-4-quinazolinamine] | > 100 | > 100 | > 100 | > 100 | > 100 |  |
| O=[N+]([O-])c1ccc(COc2ccccc2Nc2ncnc3cc4c(cc23)OCCOCCO4)cc1 [Compound 1, N-(2-((4-nitrophenyl)methoxy)phenyl)-6,7-(benzo-9-crown-3)-4-quinazolinamine] |  |  |  |  |  | IC50 ([1]; Homo sapiens): 50.2 µM; IC50 ([2]; Homo sapiens): > 100 µM; IC50 ([3]; Homo sapiens): 28.4 µM; IC50 ([4]; Homo sapiens, MCF7): > 100 µM; IC50 ([5]; Homo sapiens, DU-145): 85.6 µM; melting point: 192 to 193 °C |
